What was measured:
OR6A2 = molecular target: T1, OR6A2 (Homo sapiens, UniProt O95222); experiment: Pro-inflammatory gene expression and cytokine secretion in hMDMs; format: cell-based; details: 12 h
T1 construct: OR6A2 protein surface expression in hMDMs was confirmed by flow cytometry; endogenous in cells; host or cells: human monocyte-derived macrophages from healthy donors (rhM-CSF, 7 d)
T1 sequence (O95222 1-327): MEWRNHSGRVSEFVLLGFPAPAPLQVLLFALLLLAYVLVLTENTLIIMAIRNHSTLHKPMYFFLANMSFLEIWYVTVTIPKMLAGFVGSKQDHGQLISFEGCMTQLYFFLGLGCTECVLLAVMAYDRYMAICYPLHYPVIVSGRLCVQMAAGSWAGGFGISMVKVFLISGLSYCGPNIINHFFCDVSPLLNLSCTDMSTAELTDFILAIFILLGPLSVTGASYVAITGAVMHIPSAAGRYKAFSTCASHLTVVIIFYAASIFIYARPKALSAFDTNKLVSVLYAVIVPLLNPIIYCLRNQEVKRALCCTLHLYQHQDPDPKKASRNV
Procedure: Peripheral blood mononuclear cells (PBMCs) were isolated from EDTA-venous blood of informed healthy donors (25-50 years old) from La Jolla Institute for Immunology's in-house Normal Blood Donor Program (NBDP), using a Ficoll-Paque (GE Healthcare) standard separation protocol. Human monocytes were enriched from PBMCs by the EasySep™ Human Monocyte Isolation Kit (StemCell) according to the manufacturer's instructions. Enriched monocytes were incubated with culture medium supplemented with 50 ng/ml rhM-CSF at 37° C. and 5% CO2 for 7 days. Differentiated macrophages at day 7 were used for further studies.
(§1) BMDMs and hMDMs were incubated in culture media for 12 h at 37° C. and 5% CO2 with Oct, (10 μM), LPS (500 ng/mL) alone or combined with Oct (LPS+Oct) and DMSO (0.1%) as a control and lysed with Qiazol (500 μL; Qiagen) Similarly, whole aortas incubated as previously described were transferred into Qiazol (500 μl; Qiagen) and digested with gentleMACS™ Dissociator (Miltenyi).
Total RNA was quantified using a nanodrop spectrophotometer (Peqlab) and 500 ng were reverse transcribed into cDNA using Omniscript reverse transcriptase (Qiagen). Real time PCR reactions were performed according to the RT^2 SYBR green gene expression assay protocol (Qiagen). RT2 SYBR Green qPCR master mix and premade RT^2 qPCR Primer Assays for mouse Olfr2, Rtp1, Rtp2, Ccl2, Ccl4, Tnf, Nos2 and Gapdh were used. […] The results were calculated applying the 2^−ΔΔCT method^32 using Gapdh/GAPDH as housekeeping gene.
Supernatants of stimulated cells and aortic tissue were analyzed by BD CBA Flex Sets (BD Biosciences) for mouse TNFα, CCL2, CCL4, IL-1β, or human TNF, IL6, and IL-1β according to the manufacturer's protocol. Samples were analyzed with LSR-II (BD Biosciences). Data was acquired with FACSDiva software (BD Biosciences) and analyzed with FCAP array software 3.0 (BD Biosciences).

Olfr2 [1] = experiment: Olfr2 mRNA and protein expression in BMDMs (real time PCR, western blot, flow cytometry); format: cell-based, mouse; details: 12 h
Procedure: Olfr2 expression in BMDMs was investigated. Briefly, bone marrow cells from Apoe^−/− mice were stimulated with MCSF (20 ng/ml) for 7 d to generate BMDMs, which were left untreated or incubated with the Olfr2 agonist octanal (Oct, 10 μM), LPS, (500 ng/mL), or with both for 12 h.
as §1
BMDMs, hMDMs, mouse blood leukocytes and whole mount aortas were incubated in culture medium with Oct, (10 μM), LPS, (500 ng/mL) alone or combined (LPS+Oct) for 12h at 37° C. and 5% CO2. After the incubation aortas were cut into small pieces and digested for cell suspension as previously described^18. […]
For Olfr2 protein detection in BMDMs, cells were incubated in culture medium with Oct, (10 μM), LPS, (500 ng/mL) alone or combined (LPS+Oct) for 12h at 37° C. and 5% CO2. […] Total protein content was quantified using DC Protein Assay (Bio-Rad) and solubilized in a volume ratio of 1:1 with Laemmli Buffer (Bio-Rad). […]

Olfr2 [2] = molecular target: T2, Olfr2 (Mus musculus, UniProt Q9QWU6); details: Olfr2 binding of medium-chain aliphatic aldehydes; cited from earlier work
T2 sequence (Q9QWU6 1-327): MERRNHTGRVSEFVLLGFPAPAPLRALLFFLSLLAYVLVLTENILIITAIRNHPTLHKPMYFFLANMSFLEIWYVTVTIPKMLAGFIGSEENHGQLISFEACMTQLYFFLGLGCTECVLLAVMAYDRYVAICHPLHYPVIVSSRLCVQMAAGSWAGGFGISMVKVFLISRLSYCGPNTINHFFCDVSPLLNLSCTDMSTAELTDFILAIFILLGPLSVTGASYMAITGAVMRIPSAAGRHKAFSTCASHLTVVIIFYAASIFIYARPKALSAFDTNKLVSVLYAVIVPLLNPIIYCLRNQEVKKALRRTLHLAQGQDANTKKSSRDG

Question: For `CCCCCCCC=O` [octanal], which “LPS-induced expression of TNF, IL6 and NOS2 in hMDMs” value (OR6A2; LPS 500 ng/mL + octanal 10 μM) is on record?
Answer: enhanced the LPS-induced expression

Question: And the “secretion of inflammatory molecules (IL6, TNF) in hMDM supernatant” value (OR6A2; LPS + octanal, cytokine bead array)?
Answer: enhanced

Question: What about the “mRNA expression of TNF, IL6 and NOS2 in hMDMs” value (OR6A2; octanal 10 μM) of the same compound?
Answer: induced mRNA expression

Question: And the “Olfr2 mRNA and protein expression in BMDMs” value (Olfr2 [1]; LPS + octanal combined)?
Answer: potentiated

Question: What about the “Olfr2 mRNA and protein expression in BMDMs” value (Olfr2 [1]; octanal 10 μM) of the same compound?
Answer: enhanced

Question: What about the EC50 (Olfr2 [2]) of the same compound?
Answer: ~10 µM

— US20210145768A1, “MODULATING IMMUNE RESPONSE VIA TARGETING OF OLFACTORY RECEPTOR ACTIVITY” (La Jolla Institute for Allergy and Immunology, priority 2018, published 2021)
